What was measured:
[1] = logP determination by HPLC on reverse-phase column (C 18), EEC Directive 79/831 Annex V.A8; assay type: physicochemical; conditions: 43° C.; for chromatographic logP: reverse-phase HPLC column (C 18), pH 2.3, pH 2.3, 0.1% aqueous phosphoric acid/acetonitrile gradient
Description: The logP values given in the tables and Preparation Examples above are determined in accordance with EEC Directive 79/831 Annex V.A8 by HPLC (High Performance Liquid Chromatography) on a reverse-phase column (C 18). Temperature: 43° C. The determination is carried out in the acidic range at pH 2.3 using the mobile phases 0.1% aqueous phosphoric acid and acetonitrile; linear gradient from 10% acetonitrile to 90% acetonitrile. Calibration is carried out using unbranched alkan-2-ones (of 3 to 16 carbon atoms), with known logP values (determination of the logP values by the retention times using linear interpolation between two successive […]).

Sphaerotheca fuliginea = assay: Sphaerotheca Test (Cucumber)/Protective; assay type: in vivo; conditions: Podosphaera fuliginea, 168 h, application rate 10 g/ha, protective spray, evaluation 7 days after inoculation, 100% = no infection, read-out: % Efficacy
Description: Sphaerotheca Test (Cucumber)/Protective [table] To produce a suitable preparation of active compound, 1 part by weight of active compound is mixed with the stated amounts of solvent and emulsifier, and the concentrate is diluted with water to the desired concentration. To test for protective effectivity, the young plants are sprayed with the preparation of active compound at the stated application rate. After the spray coating has dried on, the plants are inoculated with an aqueous spore suspension of Sphaerotheca fuliginea. The plants are then placed in a greenhouse at about 23° C. and a relative atmospheric humidity of about 70%. Evaluation is carried out 7 days after the inoculation. 0% means an efficacy which corresponds to that of the control, whereas an efficacy of 100% means that no infection is observed.

Venturia inaequalis = assay: Venturia Test (Apple)/Protective; assay type: in vivo; conditions: 240 h, application rate 10 g/ha, protective spray, evaluation 10 days after inoculation, 100% = no infection, read-out: % Efficacy
Description: Venturia Test (Apple)/Protective [table] To produce a suitable preparation of active compound, 1 part by weight of active compound is mixed with the stated amounts of solvent and the emulsifier, and the concentrate is diluted with water to the desired concentration. To test for protective activity, young plants are sprayed with the preparation of active compound at the stated application rate. After the spray coating has dried on, the plants are inoculated with an aqueous conidia suspension of the apple scab pathogen Venturia inaequalis and then remain in an incubation cabin at about 20° C. and 100% relative atmospheric humidity for 1 day. The plants are then placed in a greenhouse at about 21° C. and a relative atmospheric humidity of about 90%. Evaluation is carried out 10 days after the inoculation. 0% means an efficacy which corresponds to that of the control, whereas an efficacy of 100% means that no infection is observed.

Botrytis cinerea = assay: Botrytis Test (Bean)/Protective; assay type: in vivo; conditions: 48 h, application rate 100 g/ha, protective spray, evaluation 2 days after inoculation, 100% = no infection, read-out: % Efficacy
Description: Botrytis Test (Bean)/Protective [table] To produce a suitable preparation of active compound, 1 part by weight of active compound is mixed with the stated amounts of solvent and emulsifier, and the concentrate is diluted with water to the desired concentration. To test for protective activity, young plants are sprayed with the preparation of active compound at the stated application rate. After the spray coating has dried on, 2 small pieces of agar colonised by Botrytis cinerea are placed onto each leaf. The inoculated plants are then placed in a dark chamber at about 20° C. and 100% relative atmospheric humidity. 2 days after the inoculation, the size of the infected areas on the leaves is evaluated. 0% means an efficacy which corresponds to that of the control, whereas an efficacy of 100% means that no infection is observed.

Septoria tritici = assay: In vitro Test for the ED50 Determination in Microorganisms; assay type: cell-based; conditions: 50% inhibition of fungal growth, tested at 0.1, 1, 10 and 100 ppm, 22° C., 3–5 days, photometric 620 nm
Description: (§1) In vitro Test for the ED50 Determination in Microorganisms A methanolic solution of the active compound to be tested, mixed with the emulsifier PS16, is pipetted into the wells of microtitre plates. After the solvent has evaporated, 200 μl of potato/dextrose medium are added to each well. Beforehand, a suitable concentration of spores or mycelium of the fungus to be tested was added to the medium. The resulting concentrations of the active compound are 0.1, 1, 10 and 100 ppm. The resulting concentration of the emulsifier is 300 ppm. The plates are then incubated on a shaker at a temperature of 22° C. for 3–5 days, until sufficient growth can be observed in the untreated control. Evaluation is carried out photometrically at a wavelength of 620 nm. The dose of active compound which causes a 50% inhibition of fungal growths compared to the untreated control (ED50), is calculated from the data measured at different concentrations.

Rhizoctonia solani = assay: as above; assay type: cell-based; conditions: 50% inhibition of fungal growth, tested at 0.1, 1, 10 and 100 ppm, 22° C., 3–5 days, photometric 620 nm
Description: as §1

| SMILES | logP ([1]; pH 2.3, 0.1% aqueous phosphoric acid/acetonitrile gradient, listed as 2) | chromatographic logP [1] | pest or weed control at 10 g/ha (Sphaerotheca fuliginea) [%] | pest or weed control at 10 g/ha (Venturia inaequalis) [%] | pest or weed control at 100 g/ha (Botrytis cinerea) [%] | ED50 (Septoria tritici) | ED50 (Rhizoctonia solani) | melting point [°C] |
| --- | --- | --- | --- | --- | --- | --- | --- | --- |
| Cc1nc(C(F)(F)F)c(C(=O)Nc2ccccc2-c2ccc(F)c(Cl)c2)s1 [Example 1, N-(3′-chloro-4′-fluoro-1,1′-biphenyl-2-yl)-2-methyl-4-(trifluoromethyl)-1,3-thiazol-5-carboxamide] | 3.60 | 3.58 | 83 | 100 | 82 | – | – | – |
| Cc1nc(C(F)(F)F)c(C(=O)Nc2ccccc2-c2ccc(F)cc2)s1 [Example 3.37, reference compound] | – | – | 20 | 32 | 50 | 84.24 ppm | > 100 ppm | – |
| Cc1nc(C(F)(F)F)c(C(=O)Nc2ccccc2-c2ccc(F)c(F)c2)s1 [Example 4] | – | 3.31 | 90 | 100 | – | – | – | 120 to 122 |
| Cc1nc(C(F)(F)F)c(C(=O)Nc2ccccc2-c2cc(F)cc(F)c2)s1 [Example 5] | – | 3.35 | – | 94 | – | – | – | 133 to 134 |
| Cc1nc(C(F)(F)F)c(C(=O)Nc2ccccc2-c2ccc(F)cc2F)s1 [Example 6] | – | 3.21 | – | 99 | – | – | – | – |
| Cc1nc(C(F)(F)F)c(C(=O)Nc2ccccc2-c2ccc(Cl)c(F)c2)s1 [Example 7] | – | 3.61 | 95 | 100 | 92 | – | – | 139 to 141 |
| Cc1nc(C(F)(F)F)c(C(=O)Nc2ccccc2-c2ccc(F)c(C(F)(F)F)c2)s1 [Example 9] | – | 3.76 | 90 | – | – | – | – | – |
| Cc1nc(C(F)(F)F)c(C(=O)Nc2ccccc2-c2ccc(F)c(C)c2)s1 [Example 10] | – | – | 98 | 100 | 95 | <0.1 <0.1 ppm | <0.1 <0.1 ppm | – |
| Cc1nc(C(F)(F)F)c(C(=O)Nc2ccccc2-c2ccc(Cl)c(C(F)(F)F)c2)s1 [Example 11] | – | 4.03 | 100 | 100 | – | 1.42 ppm | < 0.1 ppm | – |
| Cc1nc(C(F)(F)F)c(C(=O)Nc2ccccc2-c2ccc(C)c(C(F)(F)F)c2)s1 [Example 12] | – | 4.03 | 100 | – | – | 3.16 ppm | < 0.1 ppm | – |
| Cc1nc(C(F)(F)F)c(C(=O)Nc2ccccc2-c2ccc(OC(F)(F)F)c(C(F)(F)F)c2)s1 [Example 13] | – | 4.08 | 85 | – | – | – | – | – |
| Cc1nc(C(F)(F)F)c(C(=O)Nc2ccccc2-c2cc(Cl)cc(Cl)c2)s1 [Example 14] | – | 3.63 | – | 100 | – | 0.32 ppm | < 0.1 ppm | – |
| Cc1nc(C(F)(F)F)c(C(=O)Nc2ccccc2-c2ccc(Cl)cc2C)s1 [Example 16] | – | 4.23 | – | – | – | 0.89 ppm | 0.45 ppm | – |
| Cc1nc(C(F)(F)F)c(C(=O)Nc2ccccc2-c2ccc(Cl)cc2Cl)s1 [Example 17] | – | 3.86 | 90 | – | 87 | – | – | – |
| Cc1nc(C(F)(F)F)c(C(=O)Nc2ccccc2-c2ccc(C)c(Cl)c2)s1 [Example 18] | – | – | – | 100 | 99 | – | – | – |
| Cc1nc(C(F)(F)F)c(C(=O)Nc2ccccc2-c2ccc(Cl)cc2F)s1 [Example 19] | – | 3.52 | 81 | 100 | 99 | – | – | – |
| Nc1ccccc1-c1ccc(F)c(Cl)c1 [Example (III-1), 3′-chloro-4′-fluoro-1,1′-biphenyl-2-amine] | – | 3.01 | – | – | – | – | – | – |
| Cc1nc(C(F)(F)F)c(C(=O)Nc2ccccc2I)s1 [Example (IV-1), N-(2-iodophenyl)-2-methyl-4-(trifluoromethyl)-1,3-thiazol-5-carboxamide] | – | 2.81 | – | – | – | – | – | – |
| Cc1nc(C(F)(F)F)c(C(=O)Nc2ccccc2Br)s1 [Example (IV-2), N-(2-bromophenyl)-2-methyl-4-(trifluoromethyl)-1,3-thiazol-5-carboxamide] | – | 2.79 | – | – | – | – | – | – |
| Cc1nc(C(F)(F)F)c(C(=O)Nc2ccccc2-c2ccc(Cl)cc2)s1 [reference compound] | – | – | 30 | 76 | 76 | >100>100 ppm | >100>100 ppm | – |

Source: US7098227B2, “Disubstituted thiazolyl carboxanilides and their use as microbicides” (Bayer Cropscience AG, priority 2002, dated 2006)
